Assay results as given in patent US20130012432A1, “Peptides for Treatment of Obesity” (Novo Nordisk A/S, priority 2010, published 2013).
Converted amounts (≈) assume the structure as drawn. Positions of bridges follow the written chain, without caps; N, C: chain ends. Non-standard residues stand in square brackets, D forms with d. Residues, ends and D or L forms follow the SMILES beside them. Groups on a side chain read outwards from the residue. *: point of attachment. Palmitoyl(16-(5-tetrazolyl)) = O=C(CCCCCCCCCCCCCCCc1nnn[nH]1)*; Lys(CH2CO2H)2 = N[C@@H](CCCCN(CC(=O)O)CC(=O)O)C(=O)O; C17 diacid = O=C(O)CCCCCCCCCCCCCCCC(=O)*; Hyp = O=C(O)[C@@H]1C[C@@H](O)CN1; Dap = NC[C@H](N)C(=O)O; AEEA = NCCOCCOCC(=O)O

Key:
physchem = test: physchem
Protocol: From a stock solution in vehicle, either H2O or 10 mM phosphate, containing 1 mg (as weighed) compound per ml, 8-11 aliquots are withdrawn and pH-adjusted individually with HCl/NaOH, to cover the whole pH range.

human MC4 receptor = human MC4 receptor (Homo sapiens, UniProt P32245); test: biochemical
Protocol: Assay (V)—Melanocortin Receptor 4 (MC4) Binding Assay
In Vitro ^125NDP-α-MSH Binding to Recombinant BHK Cells Expressing Human MC4 Receptor (Filtration Assay).
The assay was performed in 5 ml minisorb vials (Sarstedt No. 55.526) or in 96-well filter-plates (Millipore MADVN 6550), and using BHK cells expressing the human MC4 receptor using BHK cells stably expressing the human MC4 receptor. The membranes were prepared from frozen or fresh cells that were homogenized in 20 mM HEPES pH 7.1, 5 mM MgCl2 and 1 mg/ml bacitracin and centrifuged at 15000 rpm at 4° C., 10 min in a Sorvall RC 5B plus, SS-34 rotor. The supernatant was discarded, and the pellets were re-suspended in buffer, homogenized and centrifuged two more times. The final pellets were resuspended in the buffer mentioned above, and the protein concentration was measured and adjusted with buffer to 14 to 17 mg/ml and the membrane preparation were kept at −80° C. until assay. The assay was run directly on a dilution of this cell membrane suspension, without any further preparation. The BHK cell membranes are kept at −80° C. until assay, and the assay is run directly on a dilution of this cell membrane suspension, without further preparation. The suspension is diluted to give maximally 10% specific binding, i.e. to approx. 50-100 fold dilution. The assay was performed in a total volume of 200 μl: 50 μl of cell suspension, 50 μl of ^125NDP-α-MSH (≈79 pM in final concentration), 50 μl of test compound and 50 μl binding buffer (pH 7) mixed and incubated for 2 h at 25° C. [binding buffer: 25 mM HEPES, pH 7.0, 1 mM CaCl2, 1 mM MgSO4, 1 mM EGTA, 0.02% Bacitracin, 0.005% Tween™ 20 and 0.1% HSA or, alternatively, 0.1% ovalbumin (Sigma; catalogue No. A-5503)]. Test compounds were dissolved in DMSO and diluted in binding buffer. Radiolabelled ligand and membranes were diluted in binding buffer. The incubation was stopped by dilution with 2×100 μl ice-cold 0.9% NaCl. The radioactivity retained on the filters was counted using a Cobra II auto gamma counter.
The data were analysed by non-linear regression analysis of binding curves, using the Windows™ program GraphPad™ Prism (GraphPad Software, USA).

MC1 receptor = MC1 receptor (Homo sapiens, UniProt Q01726); test: biochemical
Procedure, shortened: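 Compounds competed against 125I-NDP-α-MSH (22 pM final) for binding to stably MC1-expressing BHK cell membranes, 30 °C for 90 min in HEPES pH 7.4 buffer with 0.1% HSA or ovalbumin. Bound ligand collected by filtration and counted; binding curves analysed by non-linear regression.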

human GLP-1 receptor = molecular target: T1, human GLP-1 receptor (Homo sapiens, UniProt P43220); test: Assay (XI) GLP-1 activity assay, stimulation of cAMP formation; assay type: biochemical; conditions: membranes of BHK467-12A cells expressing human GLP-1 receptor
T1 construct: expressed in transfected cells; purified plasma membranes
Description: The capture of cAMP is achieved by using a specific antibody conjugated to acceptor beads.

Chain of MC1 receptor (Q01726 whole entry): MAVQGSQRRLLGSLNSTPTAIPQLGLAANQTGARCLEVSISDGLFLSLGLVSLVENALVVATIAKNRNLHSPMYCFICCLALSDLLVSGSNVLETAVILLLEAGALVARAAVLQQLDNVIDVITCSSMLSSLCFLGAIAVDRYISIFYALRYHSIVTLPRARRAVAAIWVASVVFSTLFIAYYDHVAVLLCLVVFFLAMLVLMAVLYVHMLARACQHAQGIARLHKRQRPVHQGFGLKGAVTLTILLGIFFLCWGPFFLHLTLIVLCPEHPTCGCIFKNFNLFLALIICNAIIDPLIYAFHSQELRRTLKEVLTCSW
Chain of human MC4 receptor (P32245 whole entry): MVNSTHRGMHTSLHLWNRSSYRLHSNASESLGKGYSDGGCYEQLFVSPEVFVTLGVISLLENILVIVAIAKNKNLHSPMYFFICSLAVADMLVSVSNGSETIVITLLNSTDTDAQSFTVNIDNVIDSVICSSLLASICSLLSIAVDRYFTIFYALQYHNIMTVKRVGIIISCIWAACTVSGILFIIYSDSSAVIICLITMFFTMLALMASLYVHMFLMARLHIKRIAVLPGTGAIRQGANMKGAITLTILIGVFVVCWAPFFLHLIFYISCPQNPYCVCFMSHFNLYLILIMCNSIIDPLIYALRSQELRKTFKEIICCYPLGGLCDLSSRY
T1 sequence (P43220 24-463): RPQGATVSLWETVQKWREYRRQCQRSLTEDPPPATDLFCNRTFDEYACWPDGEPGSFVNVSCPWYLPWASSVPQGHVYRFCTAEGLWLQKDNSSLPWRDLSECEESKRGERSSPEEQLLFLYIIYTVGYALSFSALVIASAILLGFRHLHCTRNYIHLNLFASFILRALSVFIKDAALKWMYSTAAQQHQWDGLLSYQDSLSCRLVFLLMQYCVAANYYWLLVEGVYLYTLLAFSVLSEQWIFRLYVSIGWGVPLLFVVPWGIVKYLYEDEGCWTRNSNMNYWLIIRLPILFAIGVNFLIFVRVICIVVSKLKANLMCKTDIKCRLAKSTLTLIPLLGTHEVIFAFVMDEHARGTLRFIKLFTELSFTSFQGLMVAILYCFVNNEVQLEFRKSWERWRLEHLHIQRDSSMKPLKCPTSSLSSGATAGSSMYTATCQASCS

CC(=O)N[C@H]1CCC(=O)NC[C@@H](C(=O)N2C[C@H](O)C[C@H]2C(=O)N2C[C@H](O)C[C@H]2C(=O)N[C@@H](CCCNC(=N)N)C(=O)N[C@@H](CC(=O)O)C(=O)N[C@@H](CCCCN(CC(=O)O)CC(=O)O)C(=O)N[C@@H](CCCCNC(=O)COCCOCCNC(=O)CCCCCCCCCCCCCCCc2nnn[nH]2)C(N)=O)NC(=O)[C@H](Cc2c[nH]c3ccccc23)NC(=O)[C@H](CCCNC(=N)N)NC(=O)[C@@H](Cc2ccccc2)NC(=O)[C@H](Cc2c[nH]cn2)NC1=O [Example 31, Ac-c[Glu-His-D-Phe-Arg-Trp-Dap]-Hyp-Hyp-Arg-Asp-Lys(biscarboxymethyl)-Lys[(2-{2-[16-(tetrazol-5-yl)hexadecanoylamino]ethoxy}ethoxy)acetyl]-NH2] (Ac-EH[dF]RW[Dap][Hyp][Hyp]RD[Lys(CH2CO2H)2]K([AEEA-Palmitoyl(16-(5-tetrazolyl))])-NH2; lactam 1-6)
solubility (physchem; pH 6.6, Solubility Conc.): 36 µM (≈ 79.4 µg/mL) | solubility (physchem; pH 6.9, Solubility Conc.): 61 µM (≈ 134 µg/mL) | solubility (physchem; pH 7.3, Solubility Conc.): 96 µM (≈ 212 µg/mL) | solubility (physchem; pH 7.4, Solubility Conc.): 228 µM (≈ 503 µg/mL) | solubility (physchem; pH 7.5, Solubility Conc.): 440 µM (≈ 970 µg/mL) | solubility (physchem; pH 7.7, Solubility Conc.): 495 µM (≈ 1090 µg/mL) | solubility (physchem; pH 7.9, Solubility Conc.): 529 µM (≈ 1170 µg/mL) | solubility (physchem; pH 8.1, Solubility Conc.): 472 µM (≈ 1040 µg/mL) | Ki (human MC4 receptor): 17 nM | Ki (MC1 receptor): > 10000 nM

CC(=O)N[C@H]1CCC(=O)NC[C@@H](C(=O)N2CCC[C@H]2C(=O)N2CCC[C@H]2C(=O)N[C@@H](CCCNC(=N)N)C(=O)N[C@@H](CC(=O)O)C(=O)N[C@@H](CCCCN(CC(=O)O)CC(=O)O)C(=O)N[C@@H](CCCCNC(=O)COCCOCCNC(=O)CCCCCCCCCCCCCCCc2nnn[nH]2)C(N)=O)NC(=O)[C@H](Cc2c[nH]c3ccccc23)NC(=O)[C@H](CCCNC(=N)N)NC(=O)[C@@H](Cc2ccccc2)NC(=O)[C@H](Cc2c[nH]cn2)NC1=O [Example 6, Ac-c[Glu-His-D-Phe-Arg-Trp-Dap]-Pro-Pro-Arg-Asp-Lys(biscarboxymethyl)-Lys[(2-{2-[16-(tetrazol-5-yl)hexadecanoylamino]ethoxy}ethoxy)acetyl]-NH2] (Ac-EH[dF]RW[Dap]PPRD[Lys(CH2CO2H)2]K([AEEA-Palmitoyl(16-(5-tetrazolyl))])-NH2; lactam 1-6)
solubility (physchem; pH 5.9, Solubility Conc.): 23 µM (≈ 50 µg/mL) | solubility (physchem; pH 6.3, Solubility Conc.): 24 µM (≈ 52.1 µg/mL) | solubility (physchem; pH 6.9, Solubility Conc.): 44 µM (≈ 95.6 µg/mL) | solubility (physchem; pH 7.2, Solubility Conc.): 82 µM (≈ 178 µg/mL) | solubility (physchem; pH 7.4, Solubility Conc.): 208 µM (≈ 452 µg/mL) | solubility (physchem; pH 7.5, Solubility Conc.): 270 µM (≈ 587 µg/mL) | solubility (physchem; pH 7.6, Solubility Conc.): 290 µM (≈ 630 µg/mL) | solubility (physchem; pH 7.8, Solubility Conc.): 254 µM (≈ 552 µg/mL) | solubility (physchem; pH 8.1, Solubility Conc.): 280 µM (≈ 608 µg/mL) | Ki (human MC4 receptor): 13 nM | Ki (MC1 receptor): > 10000 nM

exendin-4(7-45) [SEQ ID NO: 4]
EC50 relative to that of compound G1 (human GLP-1 receptor): about 0.3 times

CC(=O)N[C@H]1CCCCNC(=O)C[C@@H](C(=O)N2CCC[C@H]2C(=O)N[C@@H](CO)C(=O)N[C@@H](Cc2c[nH]cn2)C(=O)N[C@@H](CCC(=O)O)C(=O)N[C@@H](CCCCN(CC(=O)O)CC(=O)O)C(=O)N[C@@H](CCCCNC(=O)COCCOCCNC(=O)CCCCCCCCCCCCCCCC(=O)O)C(N)=O)NC(=O)[C@H](Cc2c[nH]c3ccccc23)NC(=O)[C@H](CCCNC(=N)N)NC(=O)[C@@H](Cc2ccccc2)NC(=O)[C@H](Cc2c[nH]cn2)NC1=O [Example 49, Ac-c[Lys-His-D-Phe-Arg-Trp-Asp]-Pro-Ser-His-Glu-Lys(biscarboxymethyl)-Lys({2-[2-(16-carboxyhexadecanoylamino)ethoxy]ethoxy}acetyl)-NH2] (Ac-KH[dF]RWDPSHE[Lys(CH2CO2H)2]K([AEEA-C17 diacid])-NH2; lactam 1-6)
solubility (physchem; pH 6.5, Solubility Conc.): 248 µM (≈ 536 µg/mL) | solubility (physchem; pH 6.6, Solubility Conc.): 423 µM (≈ 914 µg/mL) | solubility (physchem; pH 6.8, Solubility Conc.): 427 µM (≈ 923 µg/mL) | solubility (physchem; pH 7, Solubility Conc.): 462 µM (≈ 999 µg/mL) | solubility (physchem; pH 7.3, Solubility Conc.): 460 µM (≈ 994 µg/mL) | solubility (physchem; pH 7.7, Solubility Conc.): 439 µM (≈ 949 µg/mL) | solubility (physchem; pH 7.8, Solubility Conc.): 456 µM (≈ 986 µg/mL) | solubility (physchem; pH 8, Solubility Conc.): 410 µM (≈ 886 µg/mL) | solubility (physchem; pH 8.2, Solubility Conc.): 446 µM (≈ 964 µg/mL) | Ki (human MC4 receptor): 25 nM | Ki (MC1 receptor): > 10000 nM
